Reference: EP0441832B1, “COMPOSITION AND TREATMENT WITH BIOLOGICALLY ACTIVE PEPTIDES AND CERTAIN ANIONS” (THE CHILDREN'S HOSPITAL OF PHILADELPHIA, priority 1988, dated 1990)
Where two headings read alike, the source gives them in different places. Ends that are not written are not given here.

Key:
Assay type in all cases: cell-based
[1] = system: PSEUDOMONAS AERUGINOSA; details: Panel A: Absence of NaF; approx. 1,000 bacteria in about 200 ul trypticase soy broth
Method: (§1) Approximately 1,000 bacteria were seeded into about 200 ul of trypticase soy broth. Either magainin 2 carboxy terminal amide, PGLa, or ALSKALSK ALSKALSKALSKALSK (Z-44) were added in increasing concentrations in the absence (Panel A) or presence (Panel B) of 50 mM NaF.

[2] = system: ENTEROBACTER CLOACAE
Method: as §1

[3] = system: E. cloacae; test: Killing of bacteria: 15 min incubation in trypticase soy broth, then plating for viable organisms
Method: If 10⁷ E. cloacae organisms are inoculated into 1 ml of TSB in the presence of 60 ug/ml of MGN2, about 10⁶ bacteria are found to be viable on plating. […] The effective killing power of this antibiotic at a given concentration has been potentiated over 1 million-fold by the addition of fluoride.
LEGEND: Organisms were incubated in a volume of 1 ml in either trypticase soy broth alone or containing substances noted for 15 min at 37 °C. An aliquot was then diluted and plated to determine number of viable organisms.

[4] = peptide 60ug/ml + NaF 25 mM, 10⁷ organisms in 1 ml TSB, 15 min at 37 C

For GIGKFLHSAKKFGKAFVGEIMNS-NH2 [MGN2], the “MINIMAL INHIBITORY CONCENTRATION” value [1] was “MGN 2 250-500 ug/ml”, the “MINIMAL INHIBITORY CONCENTRATION” value [2] was “exceeded 500 ug/ml” and the “MINIMAL INHIBITORY CONCENTRATION” value ([2]; Panel A: Absence of NaF, approx. 1,000 bacteria in about 200 ul trypticase soy broth, listed as MGN2 (Magainin II)) was “MGN2 (Magainin II) >500 ug/ml”. For the same substance, the “bacteria viable on plating” value ([3]; 60 ug/ml peptide + 50 mM NaF, 10⁷ organisms in 1 ml TSB) was “all bacteria are killed”, the “potentiation of effective killing power by the addition of fluoride” value ([3]; 60 ug/ml peptide, with vs without NaF) was “over 1 million” and the CFU [3, 4] was 0. The “EOP (% viable)” value [3, 4] was 0% and the “EOP (% viable)” value ([3]; peptide 60ug/ml alone, 10⁷ organisms in 1 ml TSB, 15 min at 37 C) was 90%.
With sodium fluoride [NaF] the “EOP (% viable)” value ([3]; NaF 25mM alone, 10⁷ organisms in 1 ml TSB, 15 min at 37 C) was 100%.
